Like-named read-outs stand apart in the source and are kept apart here. Where only a bound is given, the exact number is not on record here.

For assay [1], the system named is KMS11 (human myeloma cell line). Briefly: Cell proliferation assay (CellTiter-Glo), KMS11. It is filed as cell-based. The note with it: Homo sapiens, KMS-11. An outline of the steps: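 KMS11 cells in IMDM with 10% FBS and sodium pyruvate, seeded at 2000 cells/well on assay day. Compound added at 2× to equal volume of cells, incubated 3 days at 37° C. Viability read by CellTiter-Glo luminescence; EC50 derived.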
(ATP-based viability assays read luminescence as a measure of living cells.)

For assay [2], the target named is T1, PIM3 (Homo sapiens, UniProt Q86V86). Briefly: KinaseGlo Pim3 ATP depletion assay. The format is biochemical. An outline of the steps: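 Kinase was preincubated 15 min with BAD peptide in HEPES pH 7.5/MgCl2/DTT/BSA before ATP was added. Final concentrations were 40 μM ATP, 100 μM BAD peptide and 2.5% DMSO, with 5 nM enzyme. The reaction ran to ~50% ATP depletion and remaining ATP was read by KinaseGlo Plus luminescence.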

Assay [3] has as its target GSK3β (Homo sapiens, UniProt P49841). As to the kind of experiment: GSK3β ATP depletion assay. The format is biochemical. The note with it: read-out: GSK3b IC50. An outline of the steps:
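Human GSK3β (5 nM) preincubated 15 min with 10 μM biotinylated phospho-CREB peptide in pH 7.5 Tris buffer (15 mM MgCl2, 1 mM DTT, 0.1% BSA, 2.5% DMSO). Reaction started with 2 μM ATP and run to about 50% ATP depletion. Remaining ATP measured by KinaseGlo luminescence.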

In assay [4] the target is T2, PIM1 (Homo sapiens, UniProt P11309). As to the kind of experiment: KinaseGlo Pim1 ATP depletion assay. The format is biochemical. Summed up: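 2.5 nM PIM1 preincubated 15 min with compound and 40 μM BAD peptide in 50 mM HEPES pH 7.5, 5 mM MgCl2, 1 mM DTT, 0.05% BSA, 2.5% DMSO. The reaction was started with 20 μM ATP (final) and run to about 50% ATP depletion. Remaining ATP read by KinaseGlo Plus luminescence to give IC50.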
T2 sequence (P11309 whole entry): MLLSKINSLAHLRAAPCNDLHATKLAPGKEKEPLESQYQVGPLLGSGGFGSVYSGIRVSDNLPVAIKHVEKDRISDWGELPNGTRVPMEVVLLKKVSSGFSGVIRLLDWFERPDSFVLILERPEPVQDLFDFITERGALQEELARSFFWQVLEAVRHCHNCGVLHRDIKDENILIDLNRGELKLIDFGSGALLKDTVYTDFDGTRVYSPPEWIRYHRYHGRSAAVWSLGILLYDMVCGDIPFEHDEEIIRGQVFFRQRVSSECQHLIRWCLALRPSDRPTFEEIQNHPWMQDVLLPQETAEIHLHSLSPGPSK
(In Kinase-Glo more light means more ATP remaining.)

For assay [5], the target named is T3, PIM2 (Homo sapiens, UniProt Q9P1W9). As to the kind of experiment: KinaseGlo Pim2 ATP depletion assay. It is filed as biochemical. Summed up: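 Luminescent ATP-depletion read-out of PIM2 phosphorylating BAD peptide (RSRHSSYPAGT-OH). Final conditions: 5 nM PIM2, 4 μM ATP, 10 μM peptide, 2.5% DMSO in 50 mM HEPES pH 7.5, 5 mM MgCl2, 1 mM DTT, 0.05% BSA. Enzyme–peptide preincubated 15 min with compound; reaction run to ~50% ATP depletion.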
T3 sequence (Q9P1W9 whole entry): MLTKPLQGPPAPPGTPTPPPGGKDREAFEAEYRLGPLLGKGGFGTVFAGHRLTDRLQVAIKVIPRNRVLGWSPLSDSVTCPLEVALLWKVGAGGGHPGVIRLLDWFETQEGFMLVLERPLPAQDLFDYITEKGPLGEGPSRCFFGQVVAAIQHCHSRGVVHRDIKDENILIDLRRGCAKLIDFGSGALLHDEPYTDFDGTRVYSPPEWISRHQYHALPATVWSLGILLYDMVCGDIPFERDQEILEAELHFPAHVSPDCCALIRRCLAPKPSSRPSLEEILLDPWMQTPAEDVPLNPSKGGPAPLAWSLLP

In assay [6] the target is T4, hERG (Homo sapiens, UniProt Q12809).
T4 construct: host or cells: crude membrane suspension
T4 sequence (Q12809 whole entry): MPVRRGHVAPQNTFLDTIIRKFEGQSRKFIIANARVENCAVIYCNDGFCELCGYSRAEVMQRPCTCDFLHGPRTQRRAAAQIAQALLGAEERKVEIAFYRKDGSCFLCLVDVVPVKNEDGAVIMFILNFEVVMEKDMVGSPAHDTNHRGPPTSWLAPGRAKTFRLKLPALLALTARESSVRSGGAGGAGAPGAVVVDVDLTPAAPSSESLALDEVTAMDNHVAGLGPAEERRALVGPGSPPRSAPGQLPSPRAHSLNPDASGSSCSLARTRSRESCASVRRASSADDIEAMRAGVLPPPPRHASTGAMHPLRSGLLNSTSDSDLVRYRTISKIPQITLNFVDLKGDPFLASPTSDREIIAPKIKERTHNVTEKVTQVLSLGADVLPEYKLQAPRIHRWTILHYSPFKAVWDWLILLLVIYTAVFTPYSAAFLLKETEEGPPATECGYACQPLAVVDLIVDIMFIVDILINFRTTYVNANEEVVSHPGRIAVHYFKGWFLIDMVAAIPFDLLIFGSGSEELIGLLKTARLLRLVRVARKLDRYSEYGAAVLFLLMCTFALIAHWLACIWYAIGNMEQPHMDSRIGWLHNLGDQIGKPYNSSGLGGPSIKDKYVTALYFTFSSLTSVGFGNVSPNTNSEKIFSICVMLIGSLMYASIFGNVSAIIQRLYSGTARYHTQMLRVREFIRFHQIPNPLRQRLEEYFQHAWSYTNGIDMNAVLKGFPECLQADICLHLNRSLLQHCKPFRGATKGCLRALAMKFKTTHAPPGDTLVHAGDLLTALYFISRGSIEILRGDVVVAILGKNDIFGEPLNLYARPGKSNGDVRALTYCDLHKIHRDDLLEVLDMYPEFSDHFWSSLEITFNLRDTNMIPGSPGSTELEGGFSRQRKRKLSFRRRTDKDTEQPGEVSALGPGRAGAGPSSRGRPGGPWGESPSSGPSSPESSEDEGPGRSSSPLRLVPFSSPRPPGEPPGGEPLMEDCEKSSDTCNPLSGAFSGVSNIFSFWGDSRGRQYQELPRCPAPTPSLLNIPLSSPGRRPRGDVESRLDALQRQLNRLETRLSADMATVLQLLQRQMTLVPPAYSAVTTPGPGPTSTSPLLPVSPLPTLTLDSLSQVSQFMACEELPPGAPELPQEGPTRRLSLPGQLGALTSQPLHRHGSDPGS
As to the kind of experiment: hERG binding assay ([3H] dofetilide displacement). The following applies: dofetilide displacement; read-out: HERGdof IC50. Here is the method:
Compounds of the invention were pipetted into each well of pre-wet 96-well Millipore GF/C filter plates (#MSFCN6B50): 119 μl assay buffer, 1 μl test compound in 100% DMSO (or 100% DMSO only for total binding), 40 μl [3H] dofetilide (12.5 nM, final concentration 2.5 nM; Novartis radioisotope laboratory, East Hanover, N.J., USA, specific activity 15-45 Ci/mmol); 40 μl crude membrane suspension (ca. 15 μg protein). The final concentration of DMSO during the incubation was 0.5%. Incubations were performed at room temperature for 90 min. Non-specific binding (NSB) was defined as the binding remaining in the presence of 25 μM terfenadine (Sigma T9652). The incubations were terminated by rapid filtration on a Millipore filtration manifold, followed by three washes of 200 μA ice-cold assay buffer. The plates were left to dry overnight before adding 40 μA scintillant (MicroScint-20). The plates were then sealed (Sealing Tape SI, Nunc 236366) and read in a Wallac MicroBeta Trilux beta-counter for 1.5 min per well. Compounds were tested as 9-concentration response curves in duplicate, ranging from 30 μM to 3 nM in 1:3 dilution steps. Dilution curves were prepared in 100% DMSO. The reference compound (terfenadine) was tested as an eight-concentration response curve, ranging from 10 μM to 0.6 nM in 1:4 dilution steps.

Assay [7] addresses T1, PIM3. As to the kind of experiment: Pim 3 AlphaScreen assay (high ATP). The format is biochemical. The following applies: read-out: Pim3 IC50. Summed up: (§1)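 This is a bead-based AlphaScreen run at high ATP (11-125× Km) with biotin-Bad peptide (100 nM in the substrate mix), in 50 mM Hepes pH 7.5, 5 mM MgCl2, 0.05% BSA, 0.01% Tween-20, 1 mM DTT and 2.5% DMSO final. After ~2 h the reaction was stopped with EDTA. Phospho-peptide was detected overnight with anti-phospho Ser/Thr antibody on Protein A and streptavidin beads, giving IC50.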

Assay [8] concerns the target T2, PIM1. Briefly: Pim 1 AlphaScreen assay (high ATP). It is filed as biochemical. The following applies: read-out: Pim1 IC50. An outline of the steps:
as §1
A general note: Alpha assays give light when donor and acceptor beads are brought close together.

For assay [9], the target named is T3, PIM2. Briefly: Pim 2 AlphaScreen assay (high ATP). It is filed as biochemical. The note with it: read-out: Pim2 IC50. An outline of the steps: as §1
[10] abbreviates: KMS11 cells, cell proliferation, read-out: KMS11-Luc EC50.

Chain of GSK3β (P49841 whole entry, species assumed): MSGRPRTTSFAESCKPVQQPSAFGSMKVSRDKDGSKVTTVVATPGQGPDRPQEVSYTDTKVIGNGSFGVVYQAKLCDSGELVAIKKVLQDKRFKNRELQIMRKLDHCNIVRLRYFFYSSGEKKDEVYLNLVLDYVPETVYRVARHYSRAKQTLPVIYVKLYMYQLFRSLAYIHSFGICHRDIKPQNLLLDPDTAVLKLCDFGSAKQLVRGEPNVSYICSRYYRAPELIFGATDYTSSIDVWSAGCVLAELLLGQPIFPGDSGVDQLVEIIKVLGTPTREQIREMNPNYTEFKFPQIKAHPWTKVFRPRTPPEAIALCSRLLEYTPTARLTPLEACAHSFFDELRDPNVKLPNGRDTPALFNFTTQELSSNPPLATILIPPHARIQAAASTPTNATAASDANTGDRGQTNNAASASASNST

For the molecule `CC1C(c2ccncc2NC(=O)c2ccc(F)c(-c3c(F)cccc3F)n2)OC(C)[C@@H](O)C1O` (stereo in doubt) [Example 64, 6-(2,6-difluorophenyl)-N-(4-((2S,3R,4S,5S,6S)-4,5-dihydroxy-3,6-dimethyltetrahydro-2H-pyran-2-yl)pyridin-3-yl)-5-fluoropicolinamide], a half-maximal effect in assay [1] (KMS11-Luc cells) (EC50) was put at 800 nM. Also, the IC50 in [2] was 2 nM; in assay [3], 549 nM; in [4] it was 1 nM; in assay [5] it was 16 nM; in assay [6] it was above 30000 nM.
In [1] (KMS11-Luc cells), `CC1C(c2ccncc2NC(=O)c2ccc(F)c(-c3c(F)cccc3F)n2)OC(C)[C@H](O)C1O` (stereo in doubt) [Example 65, 6-(2,6-difluorophenyl)-N-(4-((2R,3S,4R,5R,6R)-4,5-dihydroxy-3,6-dimethyltetrahydro-2H-pyran-2-yl)pyridin-3-yl)-5-fluoropicolinamide] came in with a 50% effective concentration (EC50) of 8300 nM. In addition, the half-maximal inhibitory concentration (IC50) was 3 nM in assay [2]; 51 nM in assay [3]; 1 nM in [4]; 46 nM in [5]; above 30000 nM in [6].
For `CC[C@]1(O)[C@H](O)C[C@H](c2ccncc2NC(=O)c2nc(-c3c(F)cccc3F)c(F)cc2N)O[C@@H]1C` [Example 27, 3-amino-6-(2,6-difluorophenyl)-N-(4-((2R,4R,5S,6R)-5-ethyl-4,5-dihydroxy-6-methyltetrahydro-2H-pyran-2-yl)pyridin-3-yl)-5-fluoropicolinamide], the 50% inhibitory concentration (IC50) is 1 nM in assay [2]; 250 nM in [3]; 1 nM in assay [4]; 1 nM in assay [5]; above 30000 nM in assay [6].
In [1] (KMS11-Luc cells), `O=C(Nc1cnccc1[C@@H]1C[C@H](O)CC2(CC2)O1)c1ccc(F)c(-c2c(F)cccc2F)n1` [Example 60, 6-(2,6-difluorophenyl)-5-fluoro-N-(4-((5S,7S)-7-hydroxy-4-oxaspiro[2.5]octan-5-yl)pyridin-3-yl)picolinamide] gave a concentration for a half-maximal effect (EC50) above 10000 nM. In addition, the 50% inhibitory concentration (IC50) in assay [3] was 92 nM; in [5], 28 nM; in assay [6], above 30000 nM.
With `COc1cc(F)c(-c2nc(C(=O)Nc3cnccc3[C@@H]3C[C@H](N)[C@@H](O)[C@H](C4CC4)O3)ccc2F)c(F)c1` [Example 325, N-(4-((2S,4S,5R,6S)-4-amino-6-cyclopropyl-5-hydroxytetrahydro-2H-pyran-2-yl)pyridin-3-yl)-6-(2,6-difluoro-4-methoxyphenyl)-5-fluoropicolinamide], the half-maximal effective concentration (EC50) in assay [1] (setting [10]) worked out at 5470 nM. Besides, the half-inhibitory concentration (IC50) is 181 nM in assay [7], above 25000 nM in assay [3] (ATP depletion assay), 4 nM in assay [8] and 504 nM in [9].
Regarding `CS(=O)(=O)c1cc(F)c(-c2nc(C(=O)Nc3cnccc3[C@@H]3C[C@H](N)[C@@H](O)[C@H](C4CC4)O3)ccc2F)c(F)c1` [Example 326, N-(4-((2S,4S,5R,6S)-4-amino-6-cyclopropyl-5-hydroxytetrahydro-2H-pyran-2-yl)pyridin-3-yl)-6-(2,6-difluoro-4-(methylsulfonyl)phenyl)-5-fluoropicolinamide], the concentration giving a half-maximal response (EC50) in assay [1] (setting [10]) is above 10000 nM. The half-inhibitory concentration (IC50) in [7] was 1930 nM; in [3] (ATP depletion assay) it was above 25000 nM; in assay [8] it was 27.5 nM; in assay [9], 2200 nM.
In the case of `CSc1ccc(F)c(-c2nc(C(=O)Nc3cnccc3[C@H]3C[C@@H](N)[C@](C)(O)[C@@H](C)O3)ccc2F)c1F` [Example 327, N-(4-((2R,4R,5S,6R)-4-amino-5-hydroxy-5,6-dimethyltetrahydro-2H-pyran-2-yl)pyridin-3-yl)-6-(2,6-difluoro-3-(methylthio)phenyl)-5-fluoropicolinamide], the EC50 in assay [1] (setting [10]) turned out to be 310 nM. Also, the half-inhibitory concentration (IC50) was determined as 2.6 nM in [7], 640 nM in [3] (ATP depletion assay), 0.07 nM in assay [8] and 18.8 nM in [9].

The EC50 is the concentration at which the effect is half-maximal. As usually defined, the IC50 is the midpoint of a concentration-inhibition curve.

The record behind these values is patent publication US20130109682A1, “CYCLIC ETHER COMPOUNDS USEFUL AS KINASE INHIBITORS” (NOVARTIS AG, priority 2010, published 2013).
